ChEMBL document CHEMBL1150140, “Three new C-14 oxygenated taxanes from the wood of Taxus yunnanensis” (J Nat Prod, 2002)
In brackets after ≈: the same amount, converted by molar mass.

What was measured:
HT-1080 = assay: Antiproliferative activity against human HT1080 cells by MTT assay; format: functional, cell-based
[1] = Antiproliferative activity against mouse Colon 26-L5 cells by MTT assay; format: functional, cell-based

SMILES: O=c1[nH]cc(F)c(=O)[nH]1 [FLUOROURACIL]
- EC50 (HT-1080): 0.29 µg/mL (≈ 2.23 µM)
- EC50 [1]: 0.07 µg/mL (≈ 0.538 µM)

SMILES: C=C1[C@@H](OC(C)=O)CC[C@@]2(C)C[C@H](O)C3=C(C)C[C@H](OC(=O)[C@@H](C)CC)[C@@H]([C@@H](OC(C)=O)[C@H]12)C3(C)C [HONGDOUSHAN A]
- EC50 (HT-1080): 61 µg/mL (≈ 121 µM)
- EC50 [1]: 40.1 µg/mL (≈ 79.5 µM)

SMILES: COc1cc(C[C@@H](CO)[C@H](CO)Cc2ccc(O)c(OC)c2)ccc1O [(+)-SECOISOLARICIRESINOL]
- EC50 (HT-1080): 5.9 µg/mL (≈ 16.3 µM)
- EC50 [1]: 60.2 µg/mL (≈ 166 µM)

SMILES: C=C1[C@@H](OC(C)=O)CC[C@]2(C)[C@@H]1C[C@@H]1C[C@H](OC(C)=O)C(C)=C([C@@H](OC(C)=O)[C@@H]2OC(C)=O)C1(C)C [TAXUSIN]
- EC50 (HT-1080): 61.4 µg/mL (≈ 122 µM)
- EC50 [1]: 51.7 µg/mL (≈ 102 µM)

SMILES: COc1cc([C@H]2c3cc(O)c(OC)cc3C[C@H]3C(=O)OC[C@H]23)ccc1O [ALPHA-CONIDENDRIN]
- EC50 (HT-1080): > 100 µg/mL
- EC50 [1]: > 100 µg/mL

SMILES: CC(=O)O[C@H]1C[C@]2(C(C)(C)O)C(=C1C)[C@@H](O)[C@@H](OC(=O)c1ccccc1)[C@]1(C)[C@@H](OC(C)=O)C[C@H](O)[C@@]3(OC(C)=O)CO[C@H]2[C@H]31 [TAXUYUNNANINE E]
- EC50 (HT-1080): > 100 µg/mL
- EC50 [1]: > 100 µg/mL

SMILES: C=C1[C@@H](OC(C)=O)CC[C@@]2(C)C[C@H](O)C3=C(C)C[C@H](OC(=O)CC)[C@@H]([C@@H](OC(C)=O)[C@H]12)C3(C)C [HONGDOUSHAN B]
- EC50 (HT-1080): > 100 µg/mL
- EC50 [1]: 70.4 µg/mL (≈ 148 µM)

SMILES: C=C1[C@@H](OC(C)=O)CC[C@@]2(C)C[C@H](OC(C)=O)C3=C(C)C[C@H](OC(=O)[C@@H](C)CC)[C@@H]([C@@H](OC(C)=O)[C@H]12)C3(C)C
- EC50 (HT-1080): 84.9 µg/mL (≈ 155 µM)
- EC50 [1]: 84.1 µg/mL (≈ 154 µM)

SMILES: C=C1[C@@H](O)CC[C@@]2(C)C[C@H](O)C3=C(C)C[C@H](OC(=O)[C@@H](C)CC)[C@@H]([C@@H](OC(C)=O)[C@H]12)C3(C)C [HONGDOUSHAN C]
- EC50 (HT-1080): 61.1 µg/mL (≈ 132 µM)
- EC50 [1]: 3.8 µg/mL (≈ 8.21 µM)
